# Tests used:
# [1] = test system: Blumeria graminis f. Sp. tritici (Erysiphe graminis f. sp. tritici); assay: Fungicidal activity against Blumeria graminis f. sp. tritici / wheat / leaf disc preventative (powdery mildew on wheat); type: in vivo; settings: foliar, wheat leaf segments, inoculated 1 day after application, compared to untreated, read-out: disease control
# Procedure: Fungicidal Activity Against Blumeria graminis f. Sp. tritici (Erysiphe graminis f. sp. tritici)/Wheat/Leaf Disc Preventative (Powdery Mildew on Wheat)
# Wheat leaf segments cv. Kanzler were placed on agar in a multiwell plate (24-well format) and sprayed with the formulated test compound diluted in water. The leaf disks were inoculated by shaking powdery mildew infected plants above the test plates 1 day after application. The inoculated leaf disks were incubated at 20° C. and 60% rh under a light regime of 24 h darkness followed by 12 h light/12 h darkness in a climate chamber and the activity of a compound was assessed as percent disease control compared to untreated when an appropriate level of disease damage appears on untreated check leaf segments (6-8 days after application).
# [2] = test system: Botryotinia fuckeliana (Botrytis cinerea); assay: Fungicidal activity against Botryotinia fuckeliana (Botrytis cinerea) / liquid culture (gray mould); type: cell-based; settings: 3-4 days after application, read-out: disease control (inhibition of growth, photometrically)
# Procedure: Fungicidal Activity Against Botryotinia fuckeliana (Botrytis cinerea)/Liquid Culture (Gray Mould) Conidia of the fungus from cryogenic storage were directly mixed into nutrient broth (Vogels broth). After placing a (DMSO) solution of test compound into a microtiter plate (96-well format), the nutrient broth containing the fungal spores was added. The test plates were incubated at 24° C. and the inhibition of growth was determined photometrically 3-4 days after application.
# [3] = test system: Gaeumannomyces graminis; assay: Fungicidal activity against Gaeumannomyces graminis / liquid culture (take-all of cereals); type: cell-based; settings: 4-5 days after application, read-out: disease control (inhibition of growth, photometrically)
# Procedure: (§1) Fungicidal Activity Against Gaeumannomyces graminis/Liquid Culture (Take-all of Cereals) Mycelial fragments of the fungus from cryogenic storage were directly mixed into nutrient broth (PDB potato dextrose broth). After placing a (DMSO) solution of test compound into a microtiter plate (96-well format), the nutrient broth containing the fungal spores iss added. The test plates were incubated at 24° C. and the inhibition of growth was determined photometrically 4-5 days after application.
# [4] = test system: Glomerella lagenarium (Colletotrichum lagenarium); assay: Fungicidal activity against Glomerella lagenarium (Colletotrichum lagenarium) / liquid culture (anthracnose); type: cell-based; settings: Colletotrichum orbiculare, 3-4 days after application, read-out: disease control (inhibition of growth, photometrically)
# Procedure: as §1, with “Glomerella lagenarium (Colletotrichum lagenarium)/Liquid” for “Gaeumannomyces graminis/Liquid”, “(Anthracnose) Conidia” for “(Take-all of Cereals) Mycelial fragments”, “was” for “iss”, “measured” for “determined”, “3-4” for “4-5”
# [5] = test system: Monographella nivalis (Microdochium nivale); assay: Fungicidal activity against Monographella nivalis (Microdochium nivale) / liquid culture (foot rot cereals); type: cell-based; settings: 4-5 days after application, read-out: disease control (inhibition of growth, photometrically)
# Procedure: as §1, with “Monographella nivalis (Microdochium nivale)/Liquid” for “Gaeumannomyces graminis/Liquid”, “(Foot Rot” for “(Take-all of”, “Conidia” for “Mycelial fragments”, “was” for “iss”
# [6] = test system: Mycosphaerella arachidis (Cercospora arachidicola); assay: Fungicidal activity against Mycosphaerella arachidis (Cercospora arachidicola) / liquid culture (early leaf spot); type: cell-based; settings: 4-5 days after application, read-out: disease control (inhibition of growth, photometrically)
# Procedure: as §1, with “Mycosphaerella arachidis (Cercospora arachidicola)/Liquid” for “Gaeumannomyces graminis/Liquid”, “(Early Leaf Spot) Conidia” for “(Take-all of Cereals) Mycelial fragments”, “was” for “iss”
# [7] = test system: Mycosphaerella graminicola (Septoria tritici); assay: Fungicidal activity against Mycosphaerella graminicola (Septoria tritici) / liquid culture (Septoria blotch); type: cell-based; settings: Zymoseptoria tritici, 4-5 days after application, read-out: disease control (inhibition of growth, photometrically)
# Procedure: as §1, with “Mycosphaerella graminicola (Septoria tritici)/Liquid” for “Gaeumannomyces graminis/Liquid”, “(Septoria Blotch) Conidia” for “(Take-all of Cereals) Mycelial fragments”, “was” for “iss”
# [8] = test system: Phaeosphaeria nodorum (Septoria nodorum); assay: Fungicidal activity against Phaeosphaeria nodorum (Septoria nodorum) / wheat / leaf disc preventative (glume blotch); type: in vivo; settings: Parastagonospora nodorum, foliar, wheat leaf segments, inoculated 2 days after application, compared to untreated, read-out: disease control
# Procedure: Fungicidal Activity Against Phaeosphaeria nodorum (Septoria nodorum)/Wheat/Leaf Disc Preventative (Glume Blotch) Wheat leaf segments cv. Kanzler were placed on agar in a multiwell plate (24-well format) and sprayed with the formulated test compound diluted in water. The leaf disks were inoculated with a spore suspension of the fungus 2 days after application. The inoculated test leaf disks were incubated at 20° C. and 75% rh under a light regime of 12 h light/12 h darkness in a climate cabinet and the activity of a compound was assessed as percent disease control compared to untreated when an appropriate level of disease damage appears in untreated check leaf disks (5-7 days after application).
# [9] = test system: Puccinia recondita f. sp. tritici; assay: Fungicidal activity against Puccinia recondita f. sp. tritici / wheat / leaf disc preventative (brown rust); type: in vivo; settings: foliar, wheat leaf segments, inoculated 1 day after application, compared to untreated, read-out: disease control
# Procedure: Fungicidal Activity Against Puccinia recondita f. sp. tritici/Wheat/Leaf Disc Preventative (Brown Rust) Wheat leaf segments cv. Kanzler were placed on agar in multiwell plates (24-well format) and sprayed with the formulated test compound diluted in water. The leaf disks were inoculated with a spore suspension of the fungus 1 day after application. The inoculated leaf segments were incubated at 19° C. and 75% rh under a light regime of 12 h light/12 h darkness in a climate cabinet and the activity of a compound was assessed as percent disease control compared to untreated when an appropriate level of disease damage appears in untreated check leaf segments (7-9 days after application).
# [10] = test system: Pyrenophora teres; assay: Fungicidal activity against Pyrenophora teres / barley / leaf disc preventative (net blotch); type: in vivo; settings: foliar, barley leaf segments, inoculated 2 days after application, compared to untreated, read-out: disease control
# Procedure: Fungicidal Activity Against Pyrenophora teres/Barley/Leaf Disc Preventative (Net Blotch) Barley leaf segments cv. Hasso were placed on agar in a multiwell plate (24-well format) and sprayed with the formulated test compound diluted in water. The leaf segments were inoculated with a spore suspension of the fungus 2 days after application. The inoculated leaf segments were incubated at 20° C. and 65% rh under a light regime of 12 h light/12 h darkness in a climate cabinet and the activity of a compound was assessed as disease control compared to untreated when an appropriate level of disease damage appears in untreated check leaf segments (5-7 days after application).
# [11] = test system: Thanatephorus cucumeris (Rhizoctonia solani); assay: Fungicidal activity against Thanatephorus cucumeris (Rhizoctonia solani) / liquid culture (foot rot, damping-off); type: cell-based; settings: 3-4 days after application, read-out: disease control (inhibition of growth, photometrically)
# Procedure: Fungicidal Activity Against Thanatephorus cucumeris (Rhizoctonia solani)/Liquid Culture (Foot Rot, Damping-Off) Mycelia fragments of a newly grown liquid culture of the fungus were directly mixed into nutrient broth (PDB potato dextrose broth). After placing a (DMSO) solution of the test compounds into a microtiter plate (96-well format), the nutrient broth containing the fungal material was added. The test plates were incubated at 24° C. and the inhibition of growth was determined photometrically 3-4 days after application.
# [12] = test system: Alternaria solani; assay: Fungicidal activity against Alternaria solani / tomato / leaf disc (early blight); type: in vivo; settings: foliar, tomato leaf disks, inoculated 2 days after application, compared to untreated, read-out: disease control
# Procedure: Fungicidal Activity Against Alternaria solani/Tomato/Leaf Disc (Early Blight) Tomato leaf disks cv. Baby were placed on agar in multiwell plates (24-well format) and sprayed with the formulated test compound diluted in water. The leaf disks were inoculated with a spore suspension of the fungus 2 days after application. The inoculated leaf disks were incubated at 23° C./21° C.
melting point,Compound,pest or weed control at 200 ppm [1],inhibition at 200 ppm [2],inhibition at 200 ppm [3],inhibition at 200 ppm [4],inhibition at 200 ppm [5],inhibition at 200 ppm [6],inhibition at 200 ppm [7],pest or weed control at 200 ppm [8],pest or weed control at 200 ppm [9],pest or weed control at 200 ppm [10],inhibition at 200 ppm [11],pest or weed control at 200 ppm [12]
115 to 120 °C,"Clc1ccc(Cc2cccc(-c3ncc4c(n3)CCCC4)n2)cn1 [Compound 1, 2-[6-(6-chloropyridin-3-ylmethyl)-pyridin-2-yl]-5,6,7,8-tetrahydroquinazoline]",≥ 80%,≥ 80%,≥ 80%,≥ 80%,≥ 80%,≥ 80%,≥ 80%,≥ 80%,≥ 80%,≥ 80%,≥ 80%,
244 to 245 °C,c1ccc(Cc2cccc(-c3ncc4c(n3)CCOC4)n2)cc1 [Compound 2],≥ 80%,≥ 80%,≥ 80%,≥ 80%,,≥ 80%,≥ 80%,≥ 80%,≥ 80%,≥ 80%,≥ 80%,
148 to 149 °C,Clc1cccc(Cc2cccc(-c3ncc4c(n3)CCOC4)n2)c1 [Compound 4],≥ 80%,≥ 80%,≥ 80%,≥ 80%,≥ 80%,≥ 80%,≥ 80%,≥ 80%,≥ 80%,≥ 80%,≥ 80%,
132 to 133 °C,"Cc1ccccc1Cc1cccc(-c2ncc3c(n2)CCOC3)n1 [Compound 6, 2-[6-(2-methylbenzyl)-pyridin-2-yl]-7,8-dihydro-5H-pyrano[4,3-d]pyrimidine]",≥ 80%,≥ 80%,≥ 80%,≥ 80%,≥ 80%,≥ 80%,≥ 80%,≥ 80%,≥ 80%,≥ 80%,,≥ 80%
226 to 228 °C,CC1(C)CCc2cnc(-c3cccc(Cc4ccccc4)n3)nc2C1 [Compound 11],≥ 80%,≥ 80%,≥ 80%,≥ 80%,≥ 80%,≥ 80%,≥ 80%,≥ 80%,≥ 80%,≥ 80%,≥ 80%,
222 to 223 °C,CC1(C)CCc2cnc(-c3cccc(Cc4cccc(C#N)c4)n3)nc2C1 [Compound 17],,≥ 80%,≥ 80%,≥ 80%,≥ 80%,≥ 80%,≥ 80%,≥ 80%,,≥ 80%,≥ 80%,
175 to 177 °C,CO/N=C1\CCc2nc(-c3cccc(Cc4ccccc4)n3)ncc2C1 [Compound 18],≥ 80%,≥ 80%,≥ 80%,≥ 80%,,≥ 80%,≥ 80%,≥ 80%,≥ 80%,≥ 80%,≥ 80%,
,CO[C@@H]1CCc2nc(-c3cccc(Cc4ccccc4)n3)ncc2C1 [Compound 25],≥ 80%,≥ 80%,,≥ 80%,≥ 80%,≥ 80%,≥ 80%,≥ 80%,≥ 80%,≥ 80%,,≥ 80%
,Clc1ccccc1Cc1cccc(-c2ncc3c(n2)CCCCC3)n1 [Compound 33],≥ 80%,≥ 80%,≥ 80%,≥ 80%,≥ 80%,≥ 80%,≥ 80%,≥ 80%,≥ 80%,≥ 80%,≥ 80%,≥ 80%
136 to 138 °C,CC(c1ccccc1)c1cccc(-c2ncc3c(n2)CC(C)(C)CC3)n1 (stereo not shown) [Compound 45],,≥ 80%,≥ 80%,≥ 80%,≥ 80%,≥ 80%,≥ 80%,≥ 80%,,≥ 80%,≥ 80%,

# Reference: patent US20130281467A1, “NOVEL MICROBICIDES” (SYNGENTA PARTICIPATIONS AG, priority 2010, published 2013)
